These results are taken from US12435083B2, “Cyclopropyl-(hetero)aryl-substituted ethylsulphonyl-pyridine derivatives” (BOEHRINGER INGELHEIM VETMEDICA GMBH, priority 2021, dated 2025).

Usually mortality stands for the share of the test organisms that died. By EC50 is commonly meant the concentration at which the effect is half-maximal.

The subject of assay [1] is adult Ctenocephalides felis fleas. The assay can be described thus: Ingestion activity (flea membrane feeding, blood feeding) against adult Ctenocephalides felis. Conditions: Ctenocephalides felis. The source says: Example 6: Screening Method to Test Ingestion Activity of Compounds of Formula (I) Against Adult Ctenocephalides felis
The four structurally closest prior art compounds (A), (B), (C) and (D) specifically excluded from the scope of formula (I) were characterized vis-a-vis selected compounds of formula (I) with regard to their potency in in vitro screening assays against fleas (Ctenocehalides felis) and ticks (Rhipicephalus sanguineus).
It is important to note that compounds that show better activity versus ticks are more desirable in the animal health field, as ticks are more difficult to control than fleas. Noteworthy, in particular with regard to fleas the illustrated comparative data are based on a flea membrane feeding (ingestion, blood feeding) assay. Data from this assay are more relevant for compounds intended to be delivered systemically to an animal via oral or injectable routes. Membrane feeding assays differ to primary screening laboratory contact assays in that the latter only measure the effect of the direct contact of selected compounds on the parasite, such as the flea or the tick. The information derived from laboratory contact assays is strictly limited to the ability of the compound to be absorbed through the parasite surface and to reach its molecular target, and no information can be gleaned from these contact assays as to whether the compound would also be active when presented orally to the ectoparasite itself in a blood meal, such as with the membrane feeding assay, and certainly not when administered orally to an animal host (e.g. “in vivo”) with subsequent exposure to the ectoparasite.
However, as explained above, spectrum of action against this range of species (i.e. fleas and ticks) is a desirable property of ectoparasiticides for veterinary use. In the following table 1 comparative experimental data of the in vitro assays are shown regarding flea membrane feeding (ingestion, blood feeding) activity against Ctenocephalides felis and contact activity against Rhipicephalus sanguineus.

For assay [2] the test system is unchanged. The assay can be described thus: Contact activity against adult Ctenocephalides felis (treated surface, motility by machine vision, 24 h). Particulars: treated surface, 24h, read-out: EC80 (% motility reduction, adult C. felis, contact). The source says:
Example 7: Screening Method to Test Contact Activity of Compounds of Formula (I) Against Adult Ctenocephalides felis

The test system of assay [3] is Spodoptera litura 2nd-instar larvae. In words: Insecticidal test on Spodoptera litura (cabbage leaf dip). Particulars: foliar, 192 h, 8 days after inoculation, read-out: activity level (corrected mortality rate), Spodoptera litura. The procedure:
Example 11: Insecticidal Test on Spodoptera litura
The compounds of formula (I) of the present invention or salts thereof were separately dispersed in water and diluted to 500 ppm. Cabbage leaves were dipped in the dispersion for about 30 seconds. After air dried, the leaves were placed in a plastic Petri dish with a diameter of 9 cm and inoculated with ten 2nd-instar larvae of Spodoptera litura, after which the dish was closed and then allowed to stand in a room at 25° C. 8 days after the inoculation, the numbers of the dead and alive insects were counted. The corrected mortality rate was calculated according to the following formula and the insecticidal activity was evaluated according to the following criteria. Corrected mortality rate (%)=100×(Survival rate in an untreated plot−Survival rate in a treated plot)/Survival rate in an untreated plot • A: the corrected mortality rate is 100% • B: the corrected mortality rate is 90 to 99% • C: the corrected mortality rate is 80 to 89% • D: the corrected mortality rate is 50 to 79%

In assay [4] the test system is Plutella xylostella. The assay can be described thus: Insecticidal test on Plutella xylostella (Chinese cabbage seedling dip). Conditions: 144 h, 500 ppm, seedling dip, 6 days after dip treatment, read-out: activity level (corrected mortality rate), Plutella xylostella. Summed up:
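Compounds dispersed in water at 500 ppm; Chinese cabbage seedlings bearing eggs laid by released adults over 2 days were dipped ~30 s, air-dried and kept at 25° C. Dead and live insects counted 6 days later; corrected mortality versus untreated plot scored A (100%), B (90–99%), C (80–89%), D (50–79%).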

Assay [5] has as its system Laodelphax striatellus 3rd-instar nymphs. In words: Insecticidal test on Laodelphax striatellus (rice seedling dip). Particulars: 192 h, 500 ppm, seedling dip, 8 days after inoculation, read-out: activity level (corrected mortality rate), Laodelphax striatellus. The procedure:
Example 13: Insecticidal Test on Laodelphax striatellus
The compounds of formula (I) of the present invention or salts thereof were separately dispersed in water and diluted to 500 ppm. Rice plant seedlings were dipped in the dispersion for about 30 seconds. After air dried, the seedlings were put into a separate glass test tube and inoculated with ten 3rd-instar nymphs of Laodelphax striatellus and then the glass test tube was kept in a room at 25° C. 8 days after the inoculation, the numbers of the dead and alive insects were counted. The corrected mortality rate was calculated according to the following formula and the insecticidal activity was evaluated according to the following criteria. Corrected mortality rate (%)=100×(Survival rate in an untreated plot−Survival rate in a treated plot)/Survival rate in an untreated plot • A: the corrected mortality rate is 100% • B: the corrected mortality rate is 90 to 99% • C: the corrected mortality rate is 80 to 89% • D: the corrected mortality rate is 50 to 79%

Assay [6] deals with adult Rhipicephalus sanguineus ticks. In words: Contact activity against adult Rhipicephalus sanguineus (coated vial, mortality at 48 h). Conditions: Rhipicephalus sanguineus. Summed up:
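Compound in acetone/0.02% Triton X-100 coated onto glass vial walls and cap filter paper; after drying, ten adult ticks added per vial. Held at 24° C, 95% relative humidity, 12 h light/dark cycle. Mortality scored visually at 48 hours; EC50 derived from a dose-response series.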

Assay [7] concerns Myzus persicae. In words: Insecticidal test on Myzus persicae (foliar application on potted Chinese cabbage). Particulars: 144 h, read-out: control efficacy level (control rate), Myzus persicae. From the text: Example 14: Insecticidal Test on Myzus persicae
The compounds of formula (I) of the present invention or salts thereof were separately dispersed in water and diluted to 500 ppm. Chinese cabbage plants were planted in plastic pots (diameter: 8 cm, height: 8 cm). Aphids (Myzus persicae) were propagated on the plants and then the number of surviving aphids was counted. The dispersion was applied to the foliage of the potted plants. After the plants were air dried, these were kept in a greenhouse. 6 days after the application, the number of the alive insects was counted on the plants. The control rate was calculated according to the following formula and the control efficacy was evaluated according to the following criteria. Control rate (%)=100−{(T×Ca)/(Ta×C)}×100 • Ta: the number of alive insects before the foliar application in a treated plot • T: the number of alive insects after the foliar application in a treated plot • Ca: the number of alive insects before the foliar application in an untreated plot • C: the number of alive insects after the foliar application in an untreated plot • A: the control rate is 100% • B: the control rate is 90 to 99% • C: the control rate is 80 to 89% • D: the control rate is 50 to 79%

The subject of assay [8] is Aedes aegypti L1 larvae. The assay can be described thus: Activity against larvae of Aedes aegypti (L1 larvae, 384-well, image-based mortality). Conditions: 48 h at 27° C., 384-well, read-out: EC50 (percentage of mortality, A. aegypti L1 larvae). The procedure:
Example 3: Screening Method to Test Activity of Compounds of Formula (I) Against Larvae of Aedes aegypti
Eight A. aegypti L1 larvae in a total volume of 64 μL water were added to 384-well microplates containing compounds formulated in 100% DMSO. The plates were incubated for 48 h at 27° C. Individual well images were acquired and analyzed using a pipeline to quantitatively assess the amount of larvae biomass accumulating at the bottom of the well. The efficacy of a compound at a given dose is expressed as “percentage of mortality” and determined by comparison to average biomass descriptors of positive and negative control wells containing 1.0 μM Fipronil or DMSO only, respectively. Dose response assay were conducted to determine an EC50 value.

Where [9] appears, read: bovine blood, 24h post treatment, read-out: EC80 (% motility reduction, adult C. felis, ingestion via membrane feeding).
Where [10] appears, read: 48 hours post-treatment, coated vial, read-out: EC50 (percentage mortality, adult R. sanguineus, contact).
The mark [11] stands for this setting: 500 ppm, foliar application, 6 days after application.

Read-outs that look alike come from different tables or passages of the source. Where only a bound is given, the exact number is not on record here.

For the compound `CCS(=O)(=O)c1cc(-c2nccc(C3CC3)n2)cnc1-c1nc2cc(C(F)(F)C(F)(F)F)nnc2n1C` [compound 143], the EC80 in assay [1] (setting [9]) and in assay [2] was less than 1 µM in each case. Further, the mortality at 500 ppm in assay [3], in assay [4] and in assay [5] was 100% in each case.

As to `CCS(=O)(=O)c1cc(-c2ccc(C3CC3)cc2)cnc1-c1nc2cc(C(C)(F)F)cnc2n1C` [Compound 194, 5-(4-cyclopropylphenyl)-2-[6-(1,1-difluoroethyl)-3-methylimidazo[4,5-b]pyridin-2-yl]-3-(ethanesulfonyl)pyridine], the EC50 in assay [6] (setting [10]) was in the range of 10 to 100 µM. The mortality at 500 ppm in assay [3], in assay [4] and in assay [5] was 100% in each case. In addition, in assay [7] (setting [11]), the pest or weed control at 500 ppm was 100%.

Regarding `CCS(=O)(=O)c1cc(-c2ccc(C3CC3)cc2)cnc1-c1nc2cc(S(=O)(=O)C(F)(F)F)ccc2n1C` [Compound 42, 2-[5-(4-cyclopropylphenyl)-3-(ethanesulfonyl)pyridin-2-yl]-1-methyl-5-trifluoromethanesulfonyl-1,3-benzodiazole], the half-maximal effective concentration (EC50) in assay [8] was less than 0.04 µM. Moreover, the EC80 in assay [1] (setting [9]) and in assay [2] was 1 to 10 µM each time. The mortality at 500 ppm in assay [3] and in assay [4] was 100% throughout.

As for `CCS(=O)(=O)c1cc(-c2cccc(C3(C(F)(F)F)CC3)n2)cnc1-c1cc2n(CC(F)F)cc(C(F)(F)F)cc-2n1` [Compound 171, 6′-[4-(2,2-difluoroethyl)-6-(trifluoromethyl)pyrrolo[3,2-b]pyridin-2-yl]-5′-(ethanesulfonyl)-6-[I-(trifluoromethyl)cyclopropyl]-2,3′-bipyridine], the EC80 in assay [1] (setting [9]) and in assay [2] was 1 to 10 µM throughout. In addition, the mortality at 500 ppm in assay [3] and in assay [4] was 100% in each case.

As for `CCS(=O)(=O)c1cc(-c2ccc(C3CC3)nc2)cnc1-c1ccc(OCC(F)(F)C(F)(F)F)cn1` [Compound 123, 6′-cyclopropyl-5-(ethanesulfonyl)-6-[5-(2,2,3,3,3-pentafluoropropoxy)pyridin-2-yl]-3,3′-bipyridine], the mortality at 500 ppm in assay [3], in assay [4] and in assay [5] was 100% each time. Besides, in assay [7] (foliar), the pest or weed control at 500 ppm turned out to be 100%.

For the compound `CCS(=O)(=O)c1cc(-c2ccc(C3(C(F)(F)F)CC3)cc2)cnc1-c1nc2cc3c(cc2n1C)OC(F)(F)O3` [compound 129], the EC80 in assay [1] (setting [9]) and in assay [2] was 1 to 10 µM each time. Besides, the mortality at 500 ppm in assay [3], in assay [4] and in assay [5] was 100% throughout.

With `CCS(=O)(=O)c1cc(-c2cc(C3CC3)ccn2)cnc1-c1nc2cc(C(F)(F)C(F)(F)F)cnc2n1C` [Compound 182, 4-cyclopropyl-5′-(ethanesulfonyl)-6′-[3-methyl-6-(1,1,2,2,2-pentafluoroethyl)-3H-imidazo[4,5-b]pyridin-2-yl]-2,3′-bipyridine], the EC50 in assay [6] (48 h, read-out: EC50 (percentage mortality, adult R. sanguineus, contact)) lay within 10 to 100 µM. The EC80 in assay [1] (24 h, read-out: EC80 (% motility reduction, adult C. felis, ingestion via membrane feeding)) was less than 1 µM. Also, the mortality at 500 ppm in assay [3], in assay [4] and in assay [5] was 100% each time. The pest or weed control at 500 ppm in assay [7] (foliar) came out at 100%.

Take `CCS(=O)(=O)c1cc(-c2ccc(C3(C#N)CC3)cc2)cnc1-c1ccc(OCC(F)(F)C(F)(F)F)cn1` [compound 128]: the 50% effective concentration (EC50) in assay [6] (setting [10]) is less than 10 µM. The EC80 in assay [2] fell in the range of 1 to 10 µM. In addition, the mortality at 500 ppm in assay [3], in assay [4] and in assay [5] was 100% throughout. For the same compound, in assay [7] (setting [11]), the pest or weed control at 500 ppm was determined as 100%.

As for `CCS(=O)(=O)c1cc(-c2ccc(C3CC3)cc2)cnc1-c1cc2n(CC3CC3)cc(C(F)(F)F)cc-2n1` [Compound 96, 2-[4-(cyclopropylmethyl)-6-(trifluoromethyl)pyrrolo[3,2-b]pyridin-2-yl]-5-(4-cyclopropylphenyl)-3-(ethanesulfonyl)pyridine], the EC50 in assay [6] (setting [10]) is less than 10 µM; in assay [6] (contact assay, >100 μM = not active at the top concentration, read-out: R. sanguineus contact activity EC50), 10 to 100 µM. Also, the EC80 in assay [1] (24 h, flea membrane feeding (ingestion, blood feeding) assay, EC80, read-out: C. felis membrane feeding (ingestion/blood feeding) activity EC80) fell in the range of 1 to 10 µM. Moreover, the mortality at 500 ppm in assay [3], in assay [4] and in assay [5] was 100% each time. Further, the pest or weed control at 500 ppm in assay [7] (setting [11]) stood at 100%.

In the case of `CCS(=O)(=O)c1cc(-c2ccc(C3CC3)cc2)cnc1-c1cc2n(CC(F)(F)F)cc(C(F)(F)F)cc-2n1` [Compound 107, 5-(4-cyclopropylphenyl)-3-(ethanesulfonyl)-2-[4-(2,2,2-trifluoroethyl)-6-(trifluoromethyl)pyrrolo[3,2-b]pyridin-2-yl]pyridine], the EC80 in assay [1] (setting [9]) and in assay [2] was 1 to 10 µM throughout. Also, in assay [3], the mortality at 500 ppm stood at 100%.
